Publication PMC3513622 (Antiviral research, 2012)
Read-outs that look alike come from different tables or passages of the source.

How the values were obtained:
Epstein-Barr virus (EBV) [1] = experiment: microbe, parasite or virus in culture; conditions: human gammaherpesvirus 4, Akata, 48 h
Epstein-Barr virus (EBV) [2] = conditions: for IC50: IgG induction, 0.0005-30μM, EBV genomes by qPCR
EBV early protein EA-D = conditions: for EA-D expression (immunoblot) / level of hyperphosphorylated form of EA-D (top band): 24 hours after induction; for viral reactivation assessed by expression of EA-D, in words: concentration not stated at the place (Fig. 2: 1 and 10μM)
in vitro = conditions: human
Akata cells [3] = test system: Akata cells
[4] = Cell viability of Akata cells, modified MTS assay; conditions: human, latently EBV-infected Akata cells
[5] = test system: human cytomegalovirus (HCMV) pUL97 protein kinase; conditions: 2002, cited from earlier work
purified EBV-PK = conditions: ref Gershburg et al., 2004; Marschall et al., 2002; cited from earlier work
Akata cells [6] = experiment: Cell viability of Akata cells, modified MTS assay; conditions: Akata cells, 48 hours, 0.0005-30μM, modified MTS assay
EBV = conditions: ref Gershburg et al., 2004; Wang et al., 2009; Zacny et al., 1999; cited from earlier work
[7] = biological target: T1, EBV-encoded protein kinase (EBV-PK, BGLF4) (Epstein-Barr virus, UniProt P13288); experiment: In vitro kinase assay of GST-BGLF4; type: biochemical; conditions: 10μM inhibitor, MBP substrate, 50μM ATP, filter binding
T1 sequence (P13288 1-429): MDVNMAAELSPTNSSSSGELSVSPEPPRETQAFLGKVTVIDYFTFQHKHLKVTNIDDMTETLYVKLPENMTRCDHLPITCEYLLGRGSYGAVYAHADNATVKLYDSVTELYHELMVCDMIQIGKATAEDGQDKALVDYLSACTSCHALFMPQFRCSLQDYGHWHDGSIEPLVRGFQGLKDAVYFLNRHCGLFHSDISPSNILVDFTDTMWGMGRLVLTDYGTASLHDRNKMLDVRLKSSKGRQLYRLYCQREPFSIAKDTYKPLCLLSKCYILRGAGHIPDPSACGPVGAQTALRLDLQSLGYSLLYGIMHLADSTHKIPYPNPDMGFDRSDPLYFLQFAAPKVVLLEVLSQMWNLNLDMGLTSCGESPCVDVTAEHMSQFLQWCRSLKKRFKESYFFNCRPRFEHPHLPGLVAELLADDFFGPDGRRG

[8] = 10μM PKI, Akata cells, 48 hours after IgG induction

In the case of `CO[C@@H]1[C@H](N(C)C(=O)c2ccccc2)C[C@H]2O[C@]1(C)n1c3ccccc3c3c4c(c5c6ccccc6n2c5c31)C(=O)NC4` [PKC-412], the IC50 (Epstein-Barr virus (EBV) [1]) is reported as 31 nM, the “effect on EBV replication in words” value (Epstein-Barr virus (EBV) [2]; 10μM PKI, Akata cells, 48 hours after IgG induction, listed as PKC412) is reported as “effective in inhibiting the EBV replication” and the “EA-D expression (immunoblot)” value (EBV early protein EA-D; 1μM PKI, Fig. 2B) is reported as “no EA-D expression was detected”. For the same compound, the “viral reactivation assessed by expression of EA-D, in words” value (“viral reactivation assessed” below) (EBV early protein EA-D) was “block expression of EBV early protein EA-D” and the CC50 at 48 h (in vitro) was 56 nM.
With `CC(=O)c1c(O)c(C)c(O)c(Cc2c(O)c3c(c(C(=O)/C=C/c4ccccc4)c2O)OC(C)(C)C=C3)c1O` [Rottlerin] the IC50 (Epstein-Barr virus (EBV) [1]) was 983 nM, the “effect on EBV replication in words” value (Epstein-Barr virus (EBV) [2]; [8]) was “effective in inhibiting the EBV replication” and the “TI (therapeutic index, CC50/IC50 ratio)” value (Epstein-Barr virus (EBV) [2]; Akata cells, 48 hours) was 1. The “EA-D expression (immunoblot)” value (EBV early protein EA-D; 1μM PKI, Fig. 2B) was “did not affect the expression of EA-D” and the CC50 at 48 h (in vitro) was 1000 nM.
For `COC(=O)/C=C/c1cc(O)ccc1O` [Erbstatin analog], the “effect on EBV replication in words” value (Epstein-Barr virus (EBV) [2]; [8]) was “inhibited EBV replication in cells”, the IC50 (Epstein-Barr virus (EBV) [2]; Akata cells, 48 hours) was 2370 nM and the “EA-D expression (immunoblot)” value (EBV early protein EA-D; 1μM PKI, Fig. 2B) was “did not affect the expression of EA-D”. For the same compound, the “viral reactivation assessed” value (EBV early protein EA-D) was “did not inhibit viral reactivation”.
With `N#CC(=C(/N)Sc1ccccc1N)/C(C#N)=C(/N)Sc1ccccc1N` [U-0126] the CC50 (Akata cells [3]) was 7380 nM, the “TI (therapeutic index, CC50/IC50 ratio)” value (Epstein-Barr virus (EBV) [2]) was 13 and the “effect on EBV replication in words” value (Epstein-Barr virus (EBV) [2]; [8]) was “effective in inhibiting the EBV replication”. The IC50 (Epstein-Barr virus (EBV) [2]; Akata cells, 48 hours) was 552 nM, the “EA-D expression (immunoblot)” value (EBV early protein EA-D; 1μM PKI, Fig. 2B) was “did not affect the expression of EA-D” and the “EA-D expression (immunoblot)” value (EBV early protein EA-D; 10μM PKI, Fig. 2A) was “remain relatively high”. For the same compound, the “viral reactivation assessed” value (EBV early protein EA-D) was “did not inhibit viral reactivation”.
With `O=C1Cc2c([nH]c3ccc(Br)cc23)-c2ccccc2N1` [Kenpaullone] the IC50 (Epstein-Barr virus (EBV) [1]) was 681 nM, the CC50 at 48 h [4] was 5130 nM and the “TI (therapeutic index, CC50/IC50 ratio)” value (Epstein-Barr virus (EBV) [2]) was 8. The “effect on EBV replication in words” value (Epstein-Barr virus (EBV) [2]; [8]) was “effective in inhibiting the EBV replication” and the “EA-D expression (immunoblot)” value (EBV early protein EA-D; 1μM PKI, Fig. 2B) was “did not affect the expression of EA-D”.
For `Nc1ncnc2c1c(I)cn2[C@@H]1O[C@H](CO)[C@@H](O)[C@H]1O` [5-Iodotubercidin], the “effect on EBV replication in words” value (Epstein-Barr virus (EBV) [2]; [8]) was “effective in inhibiting the EBV replication”, the IC50 (Epstein-Barr virus (EBV) [2]; Akata cells, 48 hours) was 890 nM and the “EA-D expression (immunoblot)” value (EBV early protein EA-D; 1μM PKI, Fig. 2B) was “did not affect the expression of EA-D”.
With `Cc1ccc(S(=O)(=O)/C=C/C#N)cc1` [BAY 11-7082] the CC50 (Akata cells [3]) was 2640 nM, the “effect on EBV replication in words” value (Epstein-Barr virus (EBV) [2]; 10μM PKI, Akata cells, 48 hours after IgG induction, listed as BAY-11-7082) was “effective in inhibiting the EBV replication” and the “effect on EBV replication in words” value (Epstein-Barr virus (EBV) [2]; 10μM PKI, Akata cells, 48 hours after IgG induction, listed as Bay 11-7082) was “inhibited viral replication”. The IC50 (Epstein-Barr virus (EBV) [2]; Akata cells, 48 hours) was 208 nM, the “EA-D expression (immunoblot)” value (EBV early protein EA-D; 1μM PKI, Fig. 2B) was “intermediate” and the “level of hyperphosphorylated form of EA-D (top band)” value (“level … (top band)” below) (EBV early protein EA-D; 1μM PKI, Fig. 2B) was “more pronounced effect on the levels of the hyperphosphorylated form of EA-D”. The “expression levels of housekeeping genes (β-actin)” value (EBV early protein EA-D; 10μM, Fig. 2A) was “loss of β-actin”.
With `O=c1cc(N2CCOCC2)oc2c(-c3ccccc3)cccc12` [LY 294002] the IC50 (Epstein-Barr virus (EBV) [1]) was 1840 nM, the “TI (therapeutic index, CC50/IC50 ratio)” value (Epstein-Barr virus (EBV) [2]) was 3 and the “EA-D expression (immunoblot)” value (EBV early protein EA-D; 1μM PKI, Fig. 2B) was “intermediate”. For the same compound, the “level … (top band)” value (EBV early protein EA-D; 1μM PKI, Fig. 2B) was “more pronounced effect on the levels of the hyperphosphorylated form of EA-D” and the CC50 (in vitro) was 6160 nM.
For `Nc1nc2c(ncn2COCCO)c(=O)[nH]1` [ACV, acyclovir], the “reduction of viral replication relative to DMSO treatment” value (Epstein-Barr virus (EBV) [2]; 50μM ACV, Akata cells, 48 hours after IgG induction) was 88±6% and the viability at 48 h, 50 μM (in vitro) was 89 ± 4%.
For `N#CCCn1c2ccccc2c2c3c(c4c5ccccc5[nH]c4c21)C(=O)NC3` [NGIC-I, non-glycosidic indolocarbazole I], the “concentration inhibiting pUL97 autophosphorylation activity” value ([5]; ref Marschall et al.) is given as 0.5 μM and the “effect on activity of purified EBV-PK” value (purified EBV-PK) is given as “did not inhibit”.
With `CN[C@@H]1C[C@H]2O[C@@](C)([C@@H]1OC)n1c3ccccc3c3c4c(c5c6ccccc6n2c5c31)C(=O)NC4` [Staurosporine] the “effect on EBV replication in words” value (Epstein-Barr virus (EBV) [2]; [8]) was “inhibited viral replication”, the “effect on EBV replication in words” value (Epstein-Barr virus (EBV) [2]; 10μM PKI, Akata cells, 48 hours after IgG induction, listed as Staurosporin) was “significantly reduced the EBV genome copy numbers” and the “viral reactivation assessed” value (EBV early protein EA-D) was “block expression of EBV early protein EA-D”. The CC50 (in vitro) was 4 nM.
For `Cn1cc(C2=C(c3cn(CCCSC(=N)N)c4ccccc34)C(=O)NC2=O)c2ccccc21` [Ro 31-8220], the CC50 (Akata cells [6]) was 1150 nM, the “effect on EBV replication in words” value (Epstein-Barr virus (EBV) [2]; [8]) was “effective in inhibiting the EBV replication” and the “TI (therapeutic index, CC50/IC50 ratio)” value (Epstein-Barr virus (EBV) [2]; Akata cells, 48 hours) was 3. For the same compound, the IC50 (Epstein-Barr virus (EBV) [2]; Akata cells, 48 hours) was 398 nM, the “EA-D expression (immunoblot)” value (EBV early protein EA-D; 1μM PKI, Fig. 2B) was “did not affect the expression of EA-D” and the “level … (top band)” value (EBV early protein EA-D; 1μM PKI, Fig. 2B) was “increased level of this form”.
In the case of `CC(C)Nc1nc2cc(Cl)c(Cl)cc2n1[C@H]1O[C@@H](CO)[C@H](O)[C@@H]1O` [MBV, maribavir], the “concentration inhibiting pUL97 autophosphorylation activity” value ([5]; ref Biron et al., Hamirally et al., 2009) is listed as 1 μM, the “effect on activity of purified EBV-PK” value (purified EBV-PK) is listed as “did not inhibit” and the “effect on EBV replication” value (EBV) is listed as “inhibits EBV replication”.
For `COC[C@H]1OC(=O)c2coc3c2[C@@]1(C)C1=C(C3=O)[C@@H]2CCC(=O)[C@@]2(C)C[C@H]1OC(C)=O` [Wortmannin], the IC50 (Epstein-Barr virus (EBV) [1]) was 367 nM, the “TI (therapeutic index, CC50/IC50 ratio)” value (Epstein-Barr virus (EBV) [2]) was 13 and the “effect on EBV replication in words” value (Epstein-Barr virus (EBV) [2]; [8]) was “effective in inhibiting the EBV replication”. The “EA-D expression (immunoblot)” value (EBV early protein EA-D; 1μM PKI, Fig. 2B) was “no EA-D expression was detected”, the “viral reactivation assessed” value (EBV early protein EA-D) was “inhibited EA-D expression” and the CC50 at 48 h (in vitro) was 4690 nM.
In the case of `O=c1c(O)c(-c2ccc(O)c(O)c2)oc2cc(O)cc(O)c12` [quercetin], the “effect on EBV replication in words” value (Epstein-Barr virus (EBV) [2]; [8]) is reported as “lack of activity”.
In the case of `COC(=O)[C@@]1(O)C[C@H]2O[C@]1(C)n1c3ccccc3c3c4c(c5c6ccccc6n2c5c31)C(=O)NC4` [K252A], the CC50 (Akata cells [3]) is reported as 80 nM, the “TI (therapeutic index, CC50/IC50 ratio)” value (Epstein-Barr virus (EBV) [2]) is reported as 6 and the “inhibition of EBV replication relative to DMSO treatment” value (Epstein-Barr virus (EBV) [2]; 10μM PKI, Akata cells, 48 hours after IgG induction, mean ± sem of 3 experiments) is reported as 92±6%. The IC50 (Epstein-Barr virus (EBV) [2]; Akata cells, 48 hours) was 14 nM, the “EA-D expression (immunoblot)” value (EBV early protein EA-D; 1μM PKI, Fig. 2B) was “no EA-D expression was detected” and the “viral reactivation assessed” value (EBV early protein EA-D) was “block expression of EBV early protein EA-D”. The “inhibition of GST/EBV-PK activity relative to DMSO” value [7] was “about 75%”.
With `CC(C)(C)c1cc(C=C(C#N)C#N)cc(C(C)(C)C)c1O` [Tyrphostin 9] the CC50 (Akata cells [6]) was 573 nM, the “TI (therapeutic index, CC50/IC50 ratio)” value (Epstein-Barr virus (EBV) [2]; Akata cells, 48 hours) was 3 and the IC50 (Epstein-Barr virus (EBV) [2]; Akata cells, 48 hours) was 217 nM. For the same compound, the “EA-D expression (immunoblot)” value (EBV early protein EA-D; 1μM PKI, Fig. 2B) was “did not affect the expression of EA-D”.
